Values of other authors in US8148152B2, “Method for the preparation of embryoid bodies (EBs) and uses thereof” (Axiogenesis AG, priority 2003, dated 2012).

Experiments:
[1] = system: ES cell-derived cardiomyocytes; settings: test compounds with known cardiotoxic potential; added on day 14, effect on fluorescent areas during 72 hours; data only in FIG. 6
[2] = system: EBs from mouse embryonic stem cells (clone D3, pαMHC-GFP); settings: test compounds with known embryotoxic potential from ECVAM list; 10^-8 to 10^-5 M; fluorescence on day 14 as percent of control (0.1% DMSO); data only in FIG. 5

SMILES | cardiotoxic potential (classification of test compound) [1] | embryotoxic potential (classification of test compound) [2]
C[C@@H]1C[C@H]2[C@@H]3CCC4=CC(=O)C=C[C@]4(C)[C@@]3(F)[C@@H](O)C[C@]2(C)[C@@]1(O)C(=O)CO [dexamethasone] | non cardiotoxic | –
COC(=O)c1ccccc1C(=O)OC [dimethylphtalate] | – | non-embryotoxic
COc1cccc2c1C(=O)c1c(O)c3c(c(O)c1C2=O)C[C@@](O)(C(=O)CO)C[C@@H]3O[C@H]1C[C@H](N)[C@H](O)[C@H](C)O1 [doxorubicine] | cardiotoxic | –
CN(Cc1cnc2nc(N)nc(N)c2n1)c1ccc(C(=O)N[C@@H](CCC(=O)O)C(=O)O)cc1 [methotrexate] | – | strong embryotoxic
CCCC(CCC)C(=O)O [valproic acid] | – | weak embryotoxic
